Data taken from ChEMBL document CHEMBL1201862, “PubChem BioAssay data set” (2004).
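These data come from cells grown in 96-well plates and exposed to compound for 48 hours at five concentrations. Abbreviation: GI50, concentration required for 50% inhibition of growth.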 Activity calls are given as the source filed them. No stated cut-off is given here; in the data, active = GI50 up to about 1.1 µM and inactive = higher. Where a SMILES comes first, the peptide text is derived from it.

Assays:
Experiment in all cases: NCI-60 cell line screen, 48 h
[1] = system: SF-268
[2] = system: COLO 205
[3] = system: A498
[4] = system: SK-OV-3
[5] = system: MCF7
[6] = system: UACC-257
[7] = system: NCI/ADR-RES
[8] = system: K562
[9] = system: OVCAR-4
[10] = system: IGROV-1
[11] = system: SF-539
[12] = system: SK-MEL-5
[13] = system: HOP-92
[14] = system: OVCAR-5
[15] = system: SK-MEL-28
[16] = system: NCI-H226
[17] = system: KM12
[18] = system: NCI-H522
[19] = system: M14
[20] = system: HCC 2998

SMILES | GI50 [1] | GI50 [2] | GI50 [3] | GI50 [4] | GI50 [5] | GI50 [6] | GI50 [7] | GI50 [8] | GI50 [9] | GI50 [10] | GI50 [11] | GI50 [12] | GI50 [13] | GI50 [14] | GI50 [15] | GI50 [16] | GI50 [17] | GI50 [18] | GI50 [19] | GI50 [20]
Cn1c(=O)c2nc(CSCc3ccccc3)[nH]c2n(C)c1=O | > 100 µM (inactive) | > 100 µM (inactive) | > 100 µM (inactive) | > 100 µM (inactive) | > 100 µM (inactive) | > 100 µM (inactive) | > 100 µM (inactive) | 78 µM (inactive) | > 100 µM (inactive) | > 100 µM (inactive) | > 100 µM (inactive) | 71.6 µM (inactive) | > 100 µM (inactive) | > 100 µM (inactive) | > 100 µM (inactive) | > 100 µM (inactive) | > 100 µM (inactive) | 35.6 µM (inactive) | > 100 µM (inactive) | –
O=C1NC(NNc2ccccc2)=N/C1=C\c1ccco1 | 22.4 µM (inactive) | 12.6 µM (inactive) | 46.8 µM (inactive) | > 100 µM (inactive) | 15.5 µM (inactive) | 21.1 µM (inactive) | 26.2 µM (inactive) | – | 14.6 µM (inactive) | 15.7 µM (inactive) | – | 25.5 µM (inactive) | 14.8 µM (inactive) | 37.7 µM (inactive) | 25.4 µM (inactive) | – | 11.2 µM (inactive) | 12.9 µM (inactive) | 8.47 µM (inactive) | 17.6 µM (inactive)
CC(C)c1ccc(/C=C2\CSCC3=C2N=C(S)NC3c2ccc(C(C)C)cc2)cc1 (centres undefined) | > 100 µM (inactive) | > 100 µM (inactive) | – | > 100 µM (inactive) | 88.3 µM (inactive) | 34.6 µM (inactive) | > 100 µM (inactive) | 34.8 µM (inactive) | > 100 µM (inactive) | > 100 µM (inactive) | > 100 µM (inactive) | 27.2 µM (inactive) | 68.5 µM (inactive) | > 100 µM (inactive) | > 100 µM (inactive) | > 100 µM (inactive) | > 100 µM (inactive) | 53.6 µM (inactive) | > 100 µM (inactive) | 67.6 µM (inactive)
CC1=C(C(=O)NNC(=O)c2ccccc2O)CC(C(=O)NNC(=O)c2ccccc2O)=C(C)N1 | 0.22 µM (active) | 16.9 µM (inactive) | 1.79 µM (inactive) | 5.57 µM (inactive) | 0.612 µM (active) | 27.2 µM (inactive) | 0.448 µM (active) | 0.338 µM (active) | 9.4 µM (inactive) | 0.302 µM (active) | 0.796 µM (active) | 2.06 µM (inactive) | – | 22.6 µM (inactive) | > 77.3 µM (inactive) | 1.79 µM (inactive) | 0.384 µM (active) | 2.72 µM (inactive) | 2.22 µM (inactive) | 13.7 µM (inactive)
CCOC(=O)C1C(c2ccc3c(c2)OCO3)c2c(n[nH]c2O)CC1(C)O (centres undefined) | > 100 µM (inactive) | > 100 µM (inactive) | > 100 µM (inactive) | – | > 100 µM (inactive) | > 100 µM (inactive) | > 100 µM (inactive) | – | > 100 µM (inactive) | > 100 µM (inactive) | > 100 µM (inactive) | > 100 µM (inactive) | > 100 µM (inactive) | > 100 µM (inactive) | > 100 µM (inactive) | – | > 100 µM (inactive) | > 100 µM (inactive) | > 100 µM (inactive) | > 100 µM (inactive)
O=c1c(Cl)cc2nc3ccccc3sc-2c1Cl | 14.9 µM (inactive) | 18.5 µM (inactive) | 33.9 µM (inactive) | 21 µM (inactive) | 14.4 µM (inactive) | 2.75 µM (inactive) | 21.5 µM (inactive) | 6.85 µM (inactive) | 13.2 µM (inactive) | 13.6 µM (inactive) | 16.7 µM (inactive) | 2.92 µM (inactive) | – | 24.7 µM (inactive) | 18.1 µM (inactive) | 16.5 µM (inactive) | 17.6 µM (inactive) | 12.4 µM (inactive) | 11.7 µM (inactive) | 14.1 µM (inactive)
Sc1ccc2ccccc2c1CNCc1ccccc1 | 8.47 µM (inactive) | 13.7 µM (inactive) | 16.3 µM (inactive) | 11.8 µM (inactive) | 13.7 µM (inactive) | 26.6 µM (inactive) | 25.4 µM (inactive) | 13.3 µM (inactive) | 10.9 µM (inactive) | 2.65 µM (inactive) | 10 µM (inactive) | 9.46 µM (inactive) | – | 13.1 µM (inactive) | 21.5 µM (inactive) | 3.08 µM (inactive) | 13.9 µM (inactive) | 4.93 µM (inactive) | 10 µM (inactive) | > 100 µM (inactive)
C=C1CN=C(Nc2ccc(F)cc2F)S1 | > 100 µM (inactive) | > 100 µM (inactive) | > 100 µM (inactive) | > 100 µM (inactive) | 28 µM (inactive) | > 100 µM (inactive) | > 100 µM (inactive) | 30.5 µM (inactive) | > 100 µM (inactive) | > 100 µM (inactive) | > 100 µM (inactive) | > 100 µM (inactive) | 2.51 µM (inactive) | > 100 µM (inactive) | > 100 µM (inactive) | – | > 100 µM (inactive) | – | – | > 100 µM (inactive)
CC(=O)NC(CS)C(=O)NC(CO)C(=O)NC(CO)C(=O)NC(Cc1c[nH]c2ccccc12)C(=O)N1CCCC1C(=O)NC(CO)C(=O)NC(Cc1c[nH]c2ccccc12)C(=O)NC(Cc1c[nH]cn1)C(=O)NC(CO)C(=O)NC(Cc1c[nH]c2ccccc12)C(=O)NCC(=O)NCC(=O)NC(CC(=O)O)C(=O)NC(CCC(N)=O)C(=O)NC(CCCCN)C(=O)NC(Cc1ccccc1)C(=O)NC(CCCNC(=N)N)C(=O)NC(CCCCN)C(N)=O (centres undefined) (Ac-CSSWPSWHSWGGDQKFRK-NH2; configuration not given here) | > 25 µM (inactive) | > 25 µM (inactive) | > 25 µM (inactive) | > 25 µM (inactive) | > 25 µM (inactive) | > 25 µM (inactive) | > 25 µM (inactive) | > 25 µM (inactive) | > 25 µM (inactive) | > 25 µM (inactive) | > 25 µM (inactive) | > 25 µM (inactive) | > 25 µM (inactive) | > 25 µM (inactive) | > 25 µM (inactive) | > 25 µM (inactive) | > 25 µM (inactive) | > 25 µM (inactive) | > 25 µM (inactive) | –
C=C(C)C1(Sc2ccc(OC)cc2)CC1 | 15.8 µM (inactive) | 17.1 µM (inactive) | 29.3 µM (inactive) | 30.5 µM (inactive) | 32.3 µM (inactive) | 21.2 µM (inactive) | 37.4 µM (inactive) | 14.9 µM (inactive) | 34.9 µM (inactive) | 30.5 µM (inactive) | 23.2 µM (inactive) | 14.6 µM (inactive) | – | 34.2 µM (inactive) | 79.1 µM (inactive) | 4.81 µM (inactive) | 25 µM (inactive) | – | 35.1 µM (inactive) | 14.5 µM (inactive)
O=C1C(O)=C(Cl)C(=O)c2c(O)ccc(O)c21 | > 100 µM (inactive) | > 100 µM (inactive) | > 100 µM (inactive) | – | > 100 µM (inactive) | > 100 µM (inactive) | > 100 µM (inactive) | > 100 µM (inactive) | > 100 µM (inactive) | > 100 µM (inactive) | > 100 µM (inactive) | > 100 µM (inactive) | > 100 µM (inactive) | > 100 µM (inactive) | > 100 µM (inactive) | – | > 100 µM (inactive) | – | > 100 µM (inactive) | > 100 µM (inactive)
CCCCNC(=S)N/N=C/c1cccc(C)n1 | 34 µM (inactive) | 33.7 µM (inactive) | 36.1 µM (inactive) | 59.8 µM (inactive) | 37.8 µM (inactive) | 37.8 µM (inactive) | 29 µM (inactive) | 13.2 µM (inactive) | 55.1 µM (inactive) | 58.3 µM (inactive) | 29.7 µM (inactive) | 43 µM (inactive) | 24.2 µM (inactive) | 43.2 µM (inactive) | 48.5 µM (inactive) | 27.8 µM (inactive) | 31.3 µM (inactive) | 18.6 µM (inactive) | 25.1 µM (inactive) | –
CC12CCC(=O)C=C1CCC1C2CCC2(C)C(C(=O)Cn3cnc4c(=S)nc[nH]c43)CCC12 (centres undefined) | 38.3 µM (inactive) | 42 µM (inactive) | 29.9 µM (inactive) | 33.5 µM (inactive) | 18.1 µM (inactive) | 35.6 µM (inactive) | 62.4 µM (inactive) | 48.3 µM (inactive) | 17.3 µM (inactive) | 23.6 µM (inactive) | 55.5 µM (inactive) | 30.6 µM (inactive) | 10 µM (inactive) | > 100 µM (inactive) | > 100 µM (inactive) | 41.5 µM (inactive) | 37.9 µM (inactive) | 23.4 µM (inactive) | 27.5 µM (inactive) | –
C=C(C)[C@@]1(O)CCC[C@H]1NC(=O)OC(C)(C)C | > 100 µM (inactive) | > 100 µM (inactive) | > 100 µM (inactive) | > 100 µM (inactive) | > 100 µM (inactive) | > 100 µM (inactive) | > 100 µM (inactive) | – | > 100 µM (inactive) | > 100 µM (inactive) | – | > 100 µM (inactive) | > 100 µM (inactive) | > 100 µM (inactive) | > 100 µM (inactive) | > 100 µM (inactive) | > 100 µM (inactive) | > 100 µM (inactive) | > 100 µM (inactive) | > 100 µM (inactive)
Cc1cc2nc3[nH]c4c(Cl)cc(Cl)cc4c3nc2cc1C | > 100 µM (inactive) | > 100 µM (inactive) | > 100 µM (inactive) | > 100 µM (inactive) | > 100 µM (inactive) | – | > 100 µM (inactive) | > 100 µM (inactive) | > 100 µM (inactive) | > 100 µM (inactive) | 36.5 µM (inactive) | > 100 µM (inactive) | > 100 µM (inactive) | > 100 µM (inactive) | > 100 µM (inactive) | > 100 µM (inactive) | > 100 µM (inactive) | > 100 µM (inactive) | > 100 µM (inactive) | –
